Experimental data from article PMC10539439 (Pharmacological Reports, 2023).

Test: Blood pressure, 24-h telemetric method, normotensive rats
Assay type: in vivo, rat
Settings: 5 mg/kg
Procedure: The blood pressure of rats treated with the tested compound was measured for a 24 h period after ip treatment (5 mg/kg b.w.) with a special telemetric system Stellar (TSE-Systems, Germany).
Surgery: The operation was carried out over 30 min under sterile conditions. Rats were anaesthetized with ketamine and xylasine (intramuscular injection: 100 mg/kg and 10 mg/kg). Before surgery and for 7 days after, the animals were also treated with cefuroxime (20 mg/kg/day) via intramuscular injection and ketoprofen (5 mg/kg/day) via ip injection. […] The transmitter was sutured to the peritoneal cavity.
The rats were individually caged for 2 weeks to heal after surgical cut. The animals were then placed in pairs in cages to reduce their isolation stress. Blood pressure was measured: before ip administration of the compounds – time 0 min and 24 h thereafter.

[1] = telemetry, after first administration, time 0, n 6
[2] = telemetry, after first administration, time 0.25, n 6
[3] = telemetry, after first administration, time 0.5, n 6
[4] = telemetry, after first administration, time 0.75, n 6
[5] = telemetry, after first administration, time 1, n 6
[6] = telemetry, after first administration, time 1.25, n 6
[7] = telemetry, after first administration, time 1.5, n 6
[8] = telemetry, after first administration, time 1.75, n 6
[9] = telemetry, after first administration, time 2, n 6
[10] = telemetry, after first administration, time 3, n 6
[11] = telemetry, after first administration, time 4, n 6
[12] = telemetry, after first administration, time 5, n 6
[13] = telemetry, after first administration, time 6, n 6
[14] = telemetry, after first administration, time 7, n 6
[15] = telemetry, after first administration, time 8, n 6
[16] = telemetry, after first administration, time 9, n 6
[17] = telemetry, after first administration, time 10, n 6
[18] = telemetry, after first administration, time 11, n 6
[19] = telemetry, after first administration, time 12, n 6
[20] = telemetry, after first administration, time 13, n 6
[21] = telemetry, after first administration, time 14, n 6
[22] = telemetry, after first administration, time 15, n 6
[23] = telemetry, after first administration, time 16, n 6
[24] = telemetry, after first administration, time 17, n 6
[25] = telemetry, after first administration, time 18, n 6
[26] = telemetry, after first administration, time 19, n 6
[27] = telemetry, after first administration, time 20, n 6
[28] = telemetry, after first administration, time 21, n 6
[29] = telemetry, after first administration, time 22, n 6
[30] = telemetry, after first administration, time 23, n 6
[31] = telemetry, after first administration, time 24, n 6
[32] = telemetry, after forteenth administration, time 0, n 6
[33] = telemetry, after forteenth administration, time 0.25, n 6
[34] = telemetry, after seventh administration, time 0, n 6
[35] = telemetry, after seventh administration, time 0.25, n 6
[36] = telemetry, after seventh administration, time 0.5, n 6
[37] = telemetry, after seventh administration, time 0.75, n 6
[38] = telemetry, after seventh administration, time 1, n 6
[39] = telemetry, after seventh administration, time 1.25, n 6
[40] = telemetry, after seventh administration, time 1.5, n 6
[41] = telemetry, after seventh administration, time 1.75, n 6
[42] = telemetry, after seventh administration, time 2, n 6
[43] = telemetry, after seventh administration, time 3, n 6
[44] = telemetry, after seventh administration, time 4, n 6
[45] = telemetry, after seventh administration, time 5, n 6
[46] = telemetry, after seventh administration, time 6, n 6
[47] = telemetry, after seventh administration, time 7, n 6
[48] = telemetry, after seventh administration, time 8, n 6
[49] = telemetry, after seventh administration, time 9, n 6
[50] = telemetry, after seventh administration, time 10, n 6
[51] = telemetry, after seventh administration, time 11, n 6
[52] = telemetry, after seventh administration, time 12, n 6
[53] = telemetry, after seventh administration, time 13, n 6
[54] = telemetry, after seventh administration, time 14, n 6
[55] = telemetry, after seventh administration, time 15, n 6
[56] = telemetry, after seventh administration, time 16, n 6
[57] = telemetry, after seventh administration, time 17, n 6
[58] = telemetry, after seventh administration, time 18, n 6
[59] = telemetry, after seventh administration, time 19, n 6
[60] = telemetry, after seventh administration, time 20, n 6
[61] = telemetry, after seventh administration, time 21, n 6
[62] = telemetry, after seventh administration, time 22, n 6
[63] = telemetry, after seventh administration, time 23, n 6
[64] = telemetry, after seventh administration, time 24, n 6

N=C(N)N/N=C/c1c(Cl)cc(O)cc1Cl [4HOGuanabenz]
diastolic pressure, mean (rat, time 0.5): 94.25 mmHg
systolic pressure, mean (rat, time 0.5): 131.8 mmHg
diastolic pressure, mean (rat, time 0.75): 87.25 mmHg
systolic pressure, mean (rat, time 0.75): 118.5 mmHg
diastolic pressure, mean (rat, time 1): 82.5 mmHg
systolic pressure, mean (rat, time 1): 111.8 mmHg
diastolic pressure, mean (rat, time 1.25): 78.5 mmHg
systolic pressure, mean (rat, time 1.25): 107.3 mmHg
diastolic pressure, mean (rat, time 1.5): 79.75 mmHg
systolic pressure, mean (rat, time 1.5): 117.5 mmHg
diastolic pressure, mean (rat, time 1.75): 80.5 mmHg
systolic pressure, mean (rat, time 1.75): 111.3 mmHg
diastolic pressure, mean (rat, time 2): 78.75 mmHg
systolic pressure, mean (rat, time 2): 117.5 mmHg
diastolic pressure, mean (rat, time 3): 77 mmHg
systolic pressure, mean (rat, time 3): 109.8 mmHg
diastolic pressure, mean (rat, time 4): 80.5 mmHg
systolic pressure, mean (rat, time 4): 117 mmHg
diastolic pressure, mean (rat, time 5): 81 mmHg
systolic pressure, mean (rat, time 5): 116.5 mmHg
diastolic pressure, mean (rat, time 6): 77.5 mmHg
systolic pressure, mean (rat, time 6): 119.8 mmHg
diastolic pressure, mean (rat, time 7): 76.25 mmHg
systolic pressure, mean (rat, time 7): 117.3 mmHg
diastolic pressure, mean (rat, time 8): 66.75 mmHg
systolic pressure, mean (rat, time 8): 113.3 mmHg
diastolic pressure, mean (rat, time 9): 83.5 mmHg
systolic pressure, mean (rat, time 9): 131.8 mmHg
diastolic pressure, mean (rat, time 10): 70.75 mmHg
systolic pressure, mean (rat, time 10): 120.8 mmHg
diastolic pressure, mean (rat, time 11): 81.5 mmHg
systolic pressure, mean (rat, time 11): 125.3 mmHg
diastolic pressure, mean (rat, time 12): 77.25 mmHg
systolic pressure, mean (rat, time 12): 123.8 mmHg
diastolic pressure, mean (rat, time 13): 75.75 mmHg
systolic pressure, mean (rat, time 13): 113 mmHg
diastolic pressure, mean (rat, time 14): 73.25 mmHg
systolic pressure, mean (rat, time 14): 113.5 mmHg
diastolic pressure, mean (rat, time 15): 77.5 mmHg
systolic pressure, mean (rat, time 15): 113.3 mmHg
diastolic pressure, mean (rat, time 16): 79.5 mmHg
systolic pressure, mean (rat, time 16): 121.8 mmHg
diastolic pressure, mean (rat, time 17): 88.25 mmHg
systolic pressure, mean (rat, time 17): 124.5 mmHg
diastolic pressure, mean (rat, time 18): 76 mmHg
systolic pressure, mean (rat, time 18): 118.5 mmHg
diastolic pressure, mean (rat, time 19): 76 mmHg
systolic pressure, mean (rat, time 19): 117.5 mmHg
diastolic pressure, mean (rat, time 20): 66 mmHg
systolic pressure, mean (rat, time 20): 108.8 mmHg
diastolic pressure, mean (rat, time 21): 70.5 mmHg
systolic pressure, mean (rat, time 21): 103.3 mmHg
diastolic pressure, mean (rat, time 22): 74.5 mmHg
systolic pressure, mean (rat, time 22): 110.3 mmHg
diastolic pressure, mean (rat, time 23): 75.25 mmHg
systolic pressure, mean (rat, time 23): 116.3 mmHg
diastolic pressure, mean (rat, time 24): 72.75 mmHg
systolic pressure, mean (rat, time 24): 109.5 mmHg
diastolic pressure, mean [1]: 80.5 mmHg
systolic pressure, mean [1]: 126.2 mmHg
diastolic pressure, mean [2]: 92.75 mmHg
systolic pressure, mean [2]: 141 mmHg
diastolic pressure, mean [3]: 87.5 mmHg
systolic pressure, mean [3]: 127.3 mmHg
diastolic pressure, mean [4]: 78 mmHg
systolic pressure, mean [4]: 115.6 mmHg
diastolic pressure, mean [5]: 81.38 mmHg
systolic pressure, mean [5]: 117.3 mmHg
diastolic pressure, mean [6]: 76.88 mmHg
systolic pressure, mean [6]: 111 mmHg
diastolic pressure, mean [7]: 75.13 mmHg
systolic pressure, mean [7]: 106 mmHg
diastolic pressure, mean [8]: 80.13 mmHg
systolic pressure, mean [8]: 112.4 mmHg
diastolic pressure, mean [9]: 74.63 mmHg
systolic pressure, mean [9]: 107 mmHg
diastolic pressure, mean [10]: 78.75 mmHg
systolic pressure, mean [10]: 110.8 mmHg
diastolic pressure, mean [11]: 68.75 mmHg
systolic pressure, mean [11]: 107.9 mmHg
diastolic pressure, mean [12]: 80.88 mmHg
systolic pressure, mean [12]: 114.1 mmHg
diastolic pressure, mean [13]: 78 mmHg
systolic pressure, mean [13]: 111.6 mmHg
diastolic pressure, mean [14]: 71 mmHg
systolic pressure, mean [14]: 111.1 mmHg
diastolic pressure, mean [15]: 72.75 mmHg
systolic pressure, mean [15]: 110.8 mmHg
diastolic pressure, mean [16]: 77.88 mmHg
systolic pressure, mean [16]: 114.6 mmHg
diastolic pressure, mean [17]: 77.63 mmHg
systolic pressure, mean [17]: 114.9 mmHg
diastolic pressure, mean [18]: 70.75 mmHg
systolic pressure, mean [18]: 107.6 mmHg
diastolic pressure, mean [19]: 80.25 mmHg
systolic pressure, mean [19]: 121.9 mmHg
diastolic pressure, mean [20]: 74.5 mmHg
systolic pressure, mean [20]: 114.9 mmHg
diastolic pressure, mean [21]: 81.88 mmHg
systolic pressure, mean [21]: 122.6 mmHg
diastolic pressure, mean [22]: 71.63 mmHg
systolic pressure, mean [22]: 109.4 mmHg
diastolic pressure, mean [23]: 72.75 mmHg
systolic pressure, mean [23]: 108.4 mmHg
diastolic pressure, mean [24]: 76.75 mmHg
systolic pressure, mean [24]: 112.6 mmHg
diastolic pressure, mean [25]: 78.75 mmHg
systolic pressure, mean [25]: 115.3 mmHg
diastolic pressure, mean [26]: 79.5 mmHg
systolic pressure, mean [26]: 117.3 mmHg
diastolic pressure, mean [27]: 77 mmHg
systolic pressure, mean [27]: 117.8 mmHg
diastolic pressure, mean [28]: 76.63 mmHg
systolic pressure, mean [28]: 117.8 mmHg
diastolic pressure, mean [29]: 71.5 mmHg
systolic pressure, mean [29]: 109.5 mmHg
diastolic pressure, mean [30]: 73.38 mmHg
systolic pressure, mean [30]: 109.5 mmHg
diastolic pressure, mean [31]: 77.63 mmHg
systolic pressure, mean [31]: 114.3 mmHg
diastolic pressure, mean [32]: 70.25 mmHg
systolic pressure, mean [32]: 110.5 mmHg
diastolic pressure, mean [33]: 90.75 mmHg
systolic pressure, mean [33]: 139.3 mmHg
diastolic pressure, mean [34]: 74.83 mmHg
systolic pressure, mean [34]: 108.2 mmHg
diastolic pressure, mean [35]: 97.5 mmHg
systolic pressure, mean [35]: 141.8 mmHg
diastolic pressure, mean [36]: 76.75 mmHg
systolic pressure, mean [36]: 114.3 mmHg
diastolic pressure, mean [37]: 77.5 mmHg
systolic pressure, mean [37]: 111.5 mmHg
diastolic pressure, mean [38]: 76.75 mmHg
systolic pressure, mean [38]: 109.3 mmHg
diastolic pressure, mean [39]: 74.25 mmHg
systolic pressure, mean [39]: 106.8 mmHg
diastolic pressure, mean [40]: 74 mmHg
systolic pressure, mean [40]: 107.3 mmHg
diastolic pressure, mean [41]: 70.75 mmHg
systolic pressure, mean [41]: 102 mmHg
diastolic pressure, mean [42]: 67.25 mmHg
systolic pressure, mean [42]: 100.5 mmHg
diastolic pressure, mean [43]: 74 mmHg
systolic pressure, mean [43]: 109 mmHg
diastolic pressure, mean [44]: 74.75 mmHg
systolic pressure, mean [44]: 109.3 mmHg
diastolic pressure, mean [45]: 74.25 mmHg
systolic pressure, mean [45]: 110.3 mmHg
diastolic pressure, mean [46]: 79.75 mmHg
systolic pressure, mean [46]: 113.8 mmHg
diastolic pressure, mean [47]: 70.5 mmHg
systolic pressure, mean [47]: 113.3 mmHg
diastolic pressure, mean [48]: 78.75 mmHg
systolic pressure, mean [48]: 116.3 mmHg
diastolic pressure, mean [49]: 75.5 mmHg
systolic pressure, mean [49]: 119.5 mmHg
diastolic pressure, mean [50]: 65.5 mmHg
systolic pressure, mean [50]: 106 mmHg
diastolic pressure, mean [51]: 75.75 mmHg
systolic pressure, mean [51]: 117.3 mmHg
diastolic pressure, mean [52]: 65.5 mmHg
systolic pressure, mean [52]: 116.8 mmHg
diastolic pressure, mean [53]: 79.25 mmHg
systolic pressure, mean [53]: 121.5 mmHg
diastolic pressure, mean [54]: 74 mmHg
systolic pressure, mean [54]: 111.5 mmHg
diastolic pressure, mean [55]: 77.25 mmHg
systolic pressure, mean [55]: 113.3 mmHg
diastolic pressure, mean [56]: 71.5 mmHg
systolic pressure, mean [56]: 107.3 mmHg
diastolic pressure, mean [57]: 79 mmHg
systolic pressure, mean [57]: 122.3 mmHg
diastolic pressure, mean [58]: 77 mmHg
systolic pressure, mean [58]: 117.5 mmHg
diastolic pressure, mean [59]: 77 mmHg
systolic pressure, mean [59]: 120.5 mmHg
diastolic pressure, mean [60]: 76.25 mmHg
systolic pressure, mean [60]: 122.3 mmHg
diastolic pressure, mean [61]: 69.25 mmHg
systolic pressure, mean [61]: 110 mmHg
diastolic pressure, mean [62]: 68 mmHg
systolic pressure, mean [62]: 108 mmHg
diastolic pressure, mean [63]: 63.75 mmHg
systolic pressure, mean [63]: 107 mmHg
diastolic pressure, mean [64]: 67.5 mmHg
systolic pressure, mean [64]: 105 mmHg
